Where two headings read alike, the source gives them in different places.
Legend:
Type in all cases: cell-based
[1] = tested on: human hepatic stellate cells LX-2; test: Anti-fibrosis activity test: inhibition of proliferation of human hepatic stellate cells LX-2 (CCK-8); conditions: Homo sapiens, 48 h, human hepatic stellate cells LX-2, CCK-8, 48 hours
Outline: (§1)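 Exponentially growing cells, 2×10^4 cells/mL, attached 24 h. Dosed 48 h across concentrations (n=3). CCK-8 2 h → A450; IR vs blank; IC50.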

[2] = tested on: cardiac fibroblast RAT-iCell-C002; test: Anti-fibrosis activity test: inhibition of proliferation of cardiac fibroblast RAT-iCell-C002 (CCK-8); conditions: Cardiac fibroblast, 48 h, cardiac fibroblast RAT-iCell-C002, CCK-8, 48 hours
Outline: as §1

[3] = tested on: human fibrosarcoma cells HT-1080; test: Anti-fibrosis activity test: inhibition of proliferation of human fibrosarcoma cells HT-1080 (CCK-8); conditions: human fibrosarcoma cells HT-1080, CCK-8, 48 hours
Outline: as §1

[4] = tested on: human embryonic lung fibroblast IMR-90; test: Anti-fibrosis activity test: inhibition of proliferation of human embryonic lung fibroblast IMR-90 (CCK-8); conditions: human embryonic lung fibroblast IMR-90, CCK-8, 48 hours
Outline: as §1

[5] = tested on: human lung fibroblasts HFL1; test: Anti-fibrosis activity test: inhibition of proliferation of human lung fibroblasts HFL1 (CCK-8); conditions: Homo sapiens, HFL1, 48 h, human lung fibroblasts HFL1, CCK-8, 48 hours
Outline: as §1

[6] = tested on: human dermal fibroblasts CCC-ESF-1; test: Anti-fibrosis activity test: inhibition of proliferation of human dermal fibroblasts CCC-ESF-1 (CCK-8); conditions: Fibroblast; human dermal fibroblasts CCC-ESF-1, CCK-8, 48 hours
Outline: as §1

[7] = tested on: BHK-21 cells; test: Anti-fibrosis activity test: inhibition of BHK-21 cell proliferation (CCK-8); conditions: Mesocricetus auratus, BHK-21, 48 h, CCK-8, 48 hours after administration
Outline: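 Read-out: CCK-8 absorbance at 450 nm after 2 h, giving proliferation inhibition (1−Ai/Ao)×100% versus blank control, from which IC50 was derived. Cells had been treated with compounds for 48 h after 24 h adherence at 37° C. Pirfenidone served as positive control.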

[8] = tested on: mouse macrophages (RAW264.7); test: Lipopolysaccharide-induced NO secretion in macrophages (Griess); conditions: RAW264.7, LPS 1 μg/ml, a/b isomers given as first/second symbol, read-out: IC50 (μM), inhibition of lipopolysaccharide-induced NO secretion in macrophages
Outline: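 RAW264.7 cells in DMEM with 10% FBS were treated with test compounds at several concentrations, then stimulated with LPS (1 μg/ml) for 24 hours. Nitrite in the supernatant was measured by Griess reaction at 548 nm, and percent inhibition was calculated against blank-medium controls.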

| Structure (SMILES) | IC50 [1] [mM] | IC50 [2] [mM] | IC50 ([3]; Homo sapiens, HT-1080, 48 h) [mM] | IC50 [4] [mM] | IC50 [5] [mM] | IC50 [6] [mM] | IC50 [7] [mM] | IC50 ([8]; Mus musculus, RAW264.7, 24 h) [µM] | IC50 ([8]; 24 hours) [µM] | IC50 [3] [mM] |
| --- | --- | --- | --- | --- | --- | --- | --- | --- | --- | --- |
| N#Cc1c(N2CCNCC2)ccc2c(OCc3ccc(F)cc3)c3c(nc12)-c1cccn1C3=O [Compound 482b, 9-((4-fluorobenzyl)oxy)-10-oxo-6-(piperazin-1-yl)-10H-pyrrolizino[1,2-b]quinoline-5-carbonitrile] | 0.05 to 5 | 0.05 to 5 | < 0.05 | 0.05 to 5 | 0.05 to 5 | 0.05 to 5 | 0.05 to 5 | 1 to 10 | – | – |
| O=C1c2c(n(Cc3ccc(Cl)cc3)c3c(C(F)(F)F)c(N4CCNCC4)ccc3c2=O)-c2cccn21 [Compound 483a, 4-(4-Chlorobenzyl)-6-(piperazin-1-yl)-5-(trifluoromethyl)-9H-pyrrolizino[1,2-b]quinoline-9,10(4H)-dione] | 0.05 to 5 | 0.05 to 5 | 0.05 to 5 | 0.05 to 5 | 0.05 to 5 | 0.05 to 5 | < 0.05 | – | 10 to 50 | – |
| O=C1c2c(nc3c(C(F)(F)F)c(N4CCNCC4)ccc3c2OCc2ccc(Cl)cc2)-c2cccn21 [Compound 483b, 9-((4-chlorobenzyl)oxy)-6-(piperazin-1-yl)-5-(trifluoromethyl)-10H-pyrrolizino[1,2-b]quinolin-10-one] | 0.05 to 5 | 0.05 to 5 | – | 0.05 to 5 | 0.05 to 5 | 0.05 to 5 | 0.05 to 5 | – | 1 to 10 | 5 to 20 |
| O=C1c2c(n(Cc3ccc(Cl)cc3)c3c(F)c(N4CCNCC4)ccc3c2=O)-c2cccn21 [Compound 484a, 4-(4-Chlorobenzyl)-5-fluoro-6-(piperazin-1-yl)-9H-pyrrolizino[1,2-b]quinoline-9,10(4H)-dione] | 0.05 to 5 | 0.05 to 5 | 0.05 to 5 | 0.05 to 5 | 0.05 to 5 | 0.05 to 5 | 0.05 to 5 | 10 to 50 | – | – |
| O=C1c2c(nc3c(F)c(N4CCNCC4)ccc3c2OCc2ccc(Cl)cc2)-c2cccn21 [Compound 484b, 9-((4-chlorobenzyl)oxy)-5-fluoro-6-(piperazin-1-yl)-10H-pyrrolizino[1,2-b]quinolin-10-one] | 0.05 to 5 | 0.05 to 5 | 0.05 to 5 | 0.05 to 5 | 0.05 to 5 | 0.05 to 5 | 0.05 to 5 | 1 to 10 | – | – |
| O=C1c2c(n(Cc3ccc(F)cc3)c3c(F)c(N4CCNCC4)ccc3c2=O)-c2cccn21 [Compound 485a, 5-Fluoro-4-(4-fluorobenzyl)-6-(piperazin-1-yl)-9H-pyrrolizino[1,2-b]quinoline-9,10(4H)-dione] | 0.05 to 5 | 0.05 to 5 | 0.05 to 5 | 0.05 to 5 | 0.05 to 5 | 0.05 to 5 | 0.05 to 5 | 10 to 50 | – | – |
| O=C1c2c(nc3c(F)c(N4CCNCC4)ccc3c2OCc2ccc(F)cc2)-c2cccn21 [Compound 485b, 5-fluoro-9-((4-fluorobenzyl)oxy)-6-(piperazin-1-yl)-10H-pyrrolizino[1,2-b]quinolin-10-one] | 0.05 to 5 | 0.05 to 5 | 0.05 to 5 | 0.05 to 5 | 0.05 to 5 | 0.05 to 5 | 0.05 to 5 | 1 to 10 | – | – |
| O=C1c2c(n(Cc3ccc(F)cc3)c3cc(F)ccc3c2=O)-c2cccn21 [Compound 490a, 6-Fluoro-4-(4-fluorobenzyl)-9H-pyrrolizino[1,2-b]quinoline-9,10(4H)-dione] | 0.05 to 5 | < 0.05 | 0.05 to 5 | 0.05 to 5 | 0.05 to 5 | 0.05 to 5 | 0.05 to 5 | 10 to 50 | – | – |
| O=C1c2c(nc3cc(F)ccc3c2OCc2ccc(F)cc2)-c2cccn21 [Compound 490b, 6-fluoro-9-((4-fluorobenzyl)oxy)-10H-pyrrolizino[1,2-b]quinolin-10-one] | 0.05 to 5 | 0.05 to 5 | 0.05 to 5 | 0.05 to 5 | 0.05 to 5 | 0.05 to 5 | 0.05 to 5 | 1 to 10 | – | – |
| O=C1c2c(n(Cc3cccc(F)c3)c3cc(F)ccc3c2=O)-c2cccn21 [Compound 491a, 6-Fluoro-4-(3-fluorobenzyl)-9H-pyrrolizino[1,2-b]quinoline-9,10(4H)-dione] | 0.05 to 5 | 0.05 to 5 | 0.05 to 5 | 0.05 to 5 | 0.05 to 5 | 0.05 to 5 | < 0.05 | 10 to 50 | – | – |
| O=C1c2c(nc3cc(F)ccc3c2OCc2cccc(F)c2)-c2cccn21 [Compound 491b, 6-fluoro-9-((3-fluorobenzyl)oxy)-10H-pyrrolizino[1,2-b]quinolin-10-one] | 0.05 to 5 | 0.05 to 5 | 0.05 to 5 | 0.05 to 5 | 0.05 to 5 | 0.05 to 5 | 0.05 to 5 | 1 to 10 | – | – |
| O=C1c2c(n(Cc3cccc(Cl)c3)c3cc(F)ccc3c2=O)-c2cccn21 [Compound 497a, 4-(3-Chlorobenzyl)-6-fluoro-9H-pyrrolizino[1,2-b]quinoline-9,10(4H)-dione] | 0.05 to 5 | < 0.05 | 0.05 to 5 | 0.05 to 5 | 0.05 to 5 | 0.05 to 5 | 0.05 to 5 | 0.1 to 1 | – | – |
| O=C1c2c(nc3cc(F)ccc3c2OCc2cccc(Cl)c2)-c2cccn21 [Compound 497b, 9-((3-chlorobenzyl)oxy)-6-fluoro-10H-pyrrolizino[1,2-b]quinolin-10-one] | 0.05 to 5 | 0.05 to 5 | 0.05 to 5 | 0.05 to 5 | 0.05 to 5 | 0.05 to 5 | 0.05 to 5 | 1 to 10 | – | – |
| O=C1c2c([nH]c3cc(Cl)ccc3c2=O)-c2cccn21 [Compound 500a, 6-Chloro-9H-pyrrolizino[1,2-b]quinoline-9,10(4H)-dione] | < 0.05 | 0.05 to 5 | 0.05 to 5 | 0.05 to 5 | 0.05 to 5 | 0.05 to 5 | 0.05 to 5 | 0.1 to 1 | – | – |
| O=C1c2c(nc3cc(Cl)ccc3c2O)-c2cccn21 [Compound 500b, 6-chloro-9-hydroxy-10H-pyrrolizino[1,2-b]quinolin-10-one] | 0.05 to 5 | 0.05 to 5 | 0.05 to 5 | 0.05 to 5 | 0.05 to 5 | 0.05 to 5 | 0.05 to 5 | 1 to 10 | – | – |
| O=C1c2c(n(Cc3ccc(F)cc3)c3cc(Cl)ccc3c2=O)-c2cccn21 [Compound 502a, 6-Chloro-4-(4-fluorobenzyl)-9H-pyrrolizino[1,2-b]quinoline-9,10(4H)-dione] | 0.05 to 5 | < 0.05 | 0.05 to 5 | 0.05 to 5 | 0.05 to 5 | 0.05 to 5 | 0.05 to 5 | 1 to 10 | – | – |
